Test results from patent US12653809B2, “Urea, amide, and substituted heteroaryl compounds for CBL-B inhibition” (Nurix Therapeutics, Inc., priority 2019, dated 2026).
Read-outs that look alike come from different tables or passages of the source.

Molecular target: T1, Cbl-b (truncated variant, UniProt number Q13191) (Homo sapiens, UniProt Q13191)
T1 construct: made in house
Assay: Cbl-b activity assay (TR-FRET, interaction of Cbl-b with UbcH5B-Ub)
Format: biochemical

[1] = high conditions: 100 mM NaCl, 60 nM Src kinase, 12 nM Cbl-b, read-out: Cbl-b activity IC50
[2] = Biological Example 1A, low or high conditions not stated, read-out: IC50 values in the Cbl-b inhibition assay of Biological Example 1A

T1 sequence (Q13191 36-427): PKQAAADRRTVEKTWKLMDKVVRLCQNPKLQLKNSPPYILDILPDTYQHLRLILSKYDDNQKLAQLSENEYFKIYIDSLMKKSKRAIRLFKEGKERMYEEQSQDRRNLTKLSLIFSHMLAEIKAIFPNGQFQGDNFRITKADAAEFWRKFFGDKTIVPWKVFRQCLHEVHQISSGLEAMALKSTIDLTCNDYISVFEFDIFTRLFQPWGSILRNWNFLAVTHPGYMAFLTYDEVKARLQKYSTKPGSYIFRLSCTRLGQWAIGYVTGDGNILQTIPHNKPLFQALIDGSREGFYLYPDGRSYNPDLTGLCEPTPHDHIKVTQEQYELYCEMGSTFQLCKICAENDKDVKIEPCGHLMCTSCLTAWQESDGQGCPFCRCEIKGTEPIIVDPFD

Row | SMILES | IC50 [1] | IC50 [2]
1 | COc1cccc(-c2cn(-c3cccc([C@H](C)Sc4nncn4C)c3)nn2)c1 [Example 77, (S)-4-(3-methoxyphenyl)-1-(3-(1-((4-methyl-4H-1,2,4-triazol-3-yl)thio)ethyl)phenyl)-1H-1,2,3-triazole] | 1 to 5 µM | –
2 | C[C@H](Sc1nncn1C)c1cccc(-n2ncc(-c3cccc(Cl)c3)n2)c1 [Example 78, 4-(3-chlorophenyl)-2-[3-[(1S)-1-[(4-methyl-4H-1,2,4-triazol-3-yl)sulfanyl]ethyl]phenyl]-2H-1,2,3-triazole] | 1 to 5 µM | –
3 | C[C@H](Sc1nncn1C)c1cccc(-n2cc(-c3cccc(Cl)c3)nn2)c1 [Example 79, 4-(3-chlorophenyl)-1-{3-[(1S)-1-[(4-methyl-4H-1,2,4-triazol-3-yl)sulfanyl]ethyl]phenyl}-1H-1,2,3-triazole] | 1 to 5 µM | –
4 | CNC(=O)c1ccc(-c2cn(-c3cccc([C@H](C)Sc4nncn4C)c3)nn2)cc1 [Example 83, (S)—N-methyl-4-(1-(3-(1-(4-methyl-4H-1,2,4-triazol-3-ylthio)ethyl)phenyl)-1H-1,2,3-triazol-4-yl)benzamide] | ≥ 5 µM | ≥ 5 µM
5 | C[C@H](Sc1nncn1C)c1cccc(-n2ncc(-c3ccc(CO)cc3)n2)c1 [Example 84, (S)-(4-(2-(3-(1-(4-methyl-4H-1,2,4-triazol-3-ylthio)ethyl)phenyl)-2H-1,2,3-triazol-4-yl)phenyl)methanol] | 1 to 5 µM | 1 to 5 µM
6 | C[C@H](Sc1nncn1C)c1cccc(-n2ncc(-c3ccc(C#N)cc3)n2)c1 [Example 88, (S)-4-(2-(3-(1-(4-methyl-4H-1,2,4-triazol-3-ylthio)ethyl)phenyl)-2H-1,2,3-triazol-4-yl)benzonitrile] | 0.1 to 1 µM | 0.1 to 1 µM
7 | C[C@H](Sc1nncn1C)c1cccc(-n2cc(-c3ccc(C#N)cc3)nn2)c1 [Example 89, (S)-4-(1-(3-(1-(4-methyl-4H-1,2,4-triazol-3-ylthio)ethyl)phenyl)-1H-1,2,3-triazol-4-yl)benzonitrile] | 1 to 5 µM | 1 to 5 µM
8 | C[C@H](Sc1nncn1C)c1cccc(-n2ncc(-c3cccc(C(=O)O)c3)n2)c1 [Example 90, (S)-3-(2-(3-(1-(4-methyl-4H-1,2,4-triazol-3-ylthio)ethyl)phenyl)-2H-1,2,3-triazol-4-yl)benzoic acid] | 1 to 5 µM | 1 to 5 µM
9 | C[C@H](Sc1nncn1C)c1cccc(-n2cc(-c3cccc(C(=O)O)c3)nn2)c1 [Example 91, (S)-3-(1-(3-(1-(4-methyl-4H-1,2,4-triazol-3-ylthio)ethyl)phenyl)-1H-1,2,3-triazol-4-yl)benzoic acid] | ≥ 5 µM | ≥ 5 µM
10 | CNC(=O)c1cccc(-c2cn(-c3cccc([C@H](C)Sc4nncn4C)c3)nn2)c1 [Example 94, (S)—N-methyl-3-(1-(3-(1-(4-methyl-4H-1,2,4-triazol-3-ylthio)ethyl)phenyl)-1H-1,2,3-triazol-4-yl)benzamide] | ≥ 5 µM | ≥ 5 µM
11 | C[C@H](Sc1nncn1C)c1cccc(-n2cc(-c3cccc(C(N)=O)c3)nn2)c1 [Example 96, (S)-3-(1-(3-(1-(4-methyl-4H-1,2,4-triazol-3-ylthio)ethyl)phenyl)-1H-1,2,3-triazol-4-yl)benzamide] | 1 to 5 µM | 1 to 5 µM
12 | C[C@H](Sc1nncn1C)c1cccc(-n2ncc(-c3cccc(C#N)c3)n2)c1 [Example 97, (S)-3-(2-(3-(1-(4-methyl-4H-1,2,4-triazol-3-ylthio)ethyl)phenyl)-2H-1,2,3-triazol-4-yl)benzonitrile] | 1 to 5 µM | 1 to 5 µM
13 | C[C@H](Sc1nncn1C)c1cccc(-n2cc(-c3cccc(C#N)c3)nn2)c1 [Example 98, (S)-3-(1-(3-(1-(4-methyl-4H-1,2,4-triazol-3-ylthio)ethyl)phenyl)-1H-1,2,3-triazol-4-yl)benzonitrile] | ≥ 5 µM | ≥ 5 µM
14 | CC(Sc1nncn1C)c1ccnc(-n2ncc(-c3ccccc3)n2)c1 (stereo not drawn) [Example 101, 4-(1-((4-methyl-4H-1,2,4-triazol-3-yl)thio)ethyl)-2-(4-phenyl-2H-1,2,3-triazol-2-yl)pyridine] | ≥ 5 µM | ≥ 5 µM
15 | C[C@H](Sc1nncn1C)c1cccc(-c2cc(-c3ccccc3)n[nH]2)c1 [Example 102, (S)-4-methyl-3-((1-(3-(3-phenyl-1H-pyrazol-5-yl)phenyl)ethyl)thio)-4H-1,2,4-triazole] | 0.1 to 1 µM | 0.1 to 1 µM
16 | C[C@@H](Sc1nncn1C)c1cccc(-c2cc(-c3ccccc3)n[nH]2)c1 [Example 103, (R)-4-methyl-3-((1-(3-(3-phenyl-1H-pyrazol-5-yl)phenyl)ethyl)thio)-4H-1,2,4-triazole] | ≥ 5 µM | ≥ 5 µM
17 | COc1cccc(-c2cc(-c3cccc(C(C)Sc4nncn4C)c3)[nH]n2)c1 (stereo not drawn) [Example 104, 3-((1-(3-(3-(3-methoxyphenyl)-1H-pyrazol-5-yl)phenyl)ethyl)thio)-4-methyl-4H-1,2,4-triazole] | 1 to 5 µM | 1 to 5 µM
18 | C[C@H](Sc1nncn1C)c1cccc(-c2n[nH]c3ccccc23)c1 [Example 107, (S)-3-(3-(1-((4-methyl-4H-1,2,4-triazol-3-yl)thio)ethyl)phenyl)-1H-indazole] | 0.1 to 1 µM | –

Other lines, results leading:

Row | IC50 [1] | IC50 [2] | SMILES
19 | 1 to 5 µM | – | COc1cccc(-c2cnn(-c3cccc([C@H](C)Sc4nncn4C)c3)n2)c1 [Example 76, (S)-4-(3-methoxyphenyl)-2-(3-(1-((4-methyl-4H-1,2,4-triazol-3-yl)thio)ethyl)phenyl)-2H-1,2,3-triazole]
20 | ≥ 5 µM | ≥ 5 µM | C[C@H](Sc1nncn1C)c1cccc(-n2ncc(-c3ccc(C(=O)O)cc3)n2)c1 [Example 80, (S)-4-(2-(3-(1-(4-methyl-4H-1,2,4-triazol-3-ylthio)ethyl)phenyl)-2H-1,2,3-triazol-4-yl)benzoic acid]
21 | ≥ 5 µM | ≥ 5 µM | C[C@H](Sc1nncn1C)c1cccc(-n2cc(-c3ccc(C(=O)O)cc3)nn2)c1 [Example 81, (S)-4-(1-(3-(1-(4-methyl-4H-1,2,4-triazol-3-ylthio)ethyl)phenyl)-1H-1,2,3-triazol-4-yl)benzoic acid]
22 | 1 to 5 µM | 1 to 5 µM | CNC(=O)c1ccc(-c2cnn(-c3cccc([C@H](C)Sc4nncn4C)c3)n2)cc1 [Example 82, (S)—N-methyl-4-(2-(3-(1-(4-methyl-4H-1,2,4-triazol-3-ylthio)ethyl)phenyl)-2H-1,2,3-triazol-4-yl)benzamide]
23 | ≥ 5 µM | ≥ 5 µM | C[C@H](Sc1nncn1C)c1cccc(-n2cc(-c3ccc(CO)cc3)nn2)c1 [Example 85, (S)-(4-(1-(3-(1-(4-methyl-4H-1,2,4-triazol-3-ylthio)ethyl)phenyl)-1H-1,2,3-triazol-4-yl)phenyl)methanol]
24 | 1 to 5 µM | 1 to 5 µM | C[C@H](Sc1nncn1C)c1cccc(-n2ncc(-c3ccc(C(N)=O)cc3)n2)c1 [Example 86, (S)-4-(2-(3-(1-(4-methyl-4H-1,2,4-triazol-3-ylthio)ethyl)phenyl)-2H-1,2,3-triazol-4-yl)benzamide]
25 | 1 to 5 µM | 1 to 5 µM | C[C@H](Sc1nncn1C)c1cccc(-n2cc(-c3ccc(C(N)=O)cc3)nn2)c1 [Example 87, (S)-4-(1-(3-(1-(4-methyl-4H-1,2,4-triazol-3-ylthio)ethyl)phenyl)-1H-1,2,3-triazol-4-yl)benzamide]
26 | ≥ 5 µM | ≥ 5 µM | C[C@H](Sc1nncn1C)c1cccc(-n2cc(-c3cccc(CO)c3)nn2)c1 [Example 92, (S)-(3-(1-(3-(1-(4-methyl-4H-1,2,4-triazol-3-ylthio)ethyl)phenyl)-1H-1,2,3-triazol-4-yl)phenyl)methanol]
27 | 1 to 5 µM | 1 to 5 µM | CNC(=O)c1cccc(-c2cnn(-c3cccc([C@H](C)Sc4nncn4C)c3)n2)c1 [Example 93, (S)—N-methyl-3-(2-(3-(1-(4-methyl-4H-1,2,4-triazol-3-ylthio)ethyl)phenyl)-2H-1,2,3-triazol-4-yl)benzamide]
28 | 0.1 to 1 µM | 0.1 to 1 µM | C[C@H](Sc1nncn1C)c1cccc(-n2ncc(-c3cccc(C(N)=O)c3)n2)c1 [Example 95, (S)-3-(2-(3-(1-(4-methyl-4H-1,2,4-triazol-3-ylthio)ethyl)phenyl)-2H-1,2,3-triazol-4-yl)benzamide]
29 | 0.1 to 1 µM | 0.1 to 1 µM | C[C@H](Sc1nncn1C)c1cccc(-n2ncc(-c3ccccc3)n2)c1 [Example 99, (S)-2-(3-(1-((4-methyl-4H-1,2,4-triazol-3-yl)thio)ethyl)phenyl)-4-phenyl-2H-1,2,3-triazole]
30 | ≥ 5 µM | ≥ 5 µM | C[C@@H](Sc1nncn1C)c1cccc(-n2ncc(-c3ccccc3)n2)c1 [Example 100, (R)-2-(3-(1-((4-methyl-4H-1,2,4-triazol-3-yl)thio)ethyl)phenyl)-4-phenyl-2H-1,2,3-triazole]
31 | 0.1 to 1 µM | – | C[C@H](Cc1nncn1C)c1cccc(-c2cc(-c3ccccn3)n[nH]2)c1 [Example 105, (R)-2-(5-(3-(1-(4-methyl-4H-1,2,4-triazol-3-yl)propan-2-yl)phenyl)-1H-pyrazol-3-yl)pyridine]
32 | 0.1 to 1 µM | – | C[C@H](Cc1nncn1C)c1cccc(-c2cc(-c3ncccn3)n[nH]2)c1 [Example 106, (R)-2-(3-(3-(1-(4-methyl-4H-1,2,4-triazol-3-yl)propan-2-yl)phenyl)-1H-pyrazol-5-yl) pyrimidine]
33 | 1 to 5 µM | 1 to 5 µM | C[C@@H](Sc1nncn1C)c1cccc(-c2n[nH]c3ccccc23)c1 [Example 108, (R)-3-(3-(1-((4-methyl-4H-1,2,4-triazol-3-yl)thio)ethyl)phenyl)-1H-indazole]
34 | 0.1 to 1 µM | – | C[C@H](Cc1nncn1C)c1cccc(-c2n[nH]c3c(N4CCC(O)CC4)cc(C(F)(F)F)nc23)c1 [Example 109, (R)-1-(3-(3-(1-(4-methyl-4H-1,2,4-triazol-3-yl)propan-2-yl)phenyl)-5-(trifluoromethyl)-1H-pyrazolo[4,3-b]pyridin-7-yl)piperidin-4-ol]
